Assay results as given in patent US20230241101A1 (priority 2020, published 2023).
Like-named read-outs stand apart in the source and are kept apart here.

Assays:
SARS-CoV-2 [1] = assay: SARS-CoV-2 replication in Vero cells (qRT-PCR); assay type: cell-based; conditions: read-out: EC50, inhibition of 50% SARS-CoV-2 replication in Vero cells
SARS-CoV-2 [2] = assay: GA treatment of COVID-19 golden hamster via intranasal administration; assay type: in vivo, golden hamster rats; conditions: nasal spray 25 mg/kg.bw daily, day 4
BALB/c mice = conditions: cited from earlier work
[3] = tested on: macrophage RAW264.7 cells; assay: Cell viability CCK8, RAW264.7 cells; assay type: cell-based; conditions: 48 hrs
Experimental: (§1) To test whether GA and AF are toxic to normal cells, Vero E6, RAW264.7, and 16HBE cell lines were tested. Various doses of AURANOFIN or GA gold cluster were added into cell culture media respectively. After 48 hours of incubation, cell viability was checked by CCK8 (Beyotime, China) following the manufacturer’s instruction, all studies were carried out in triplicate. All cell lines were obtained from ATCC with authentication service.

SARS-CoV-2 [4] = conditions: Rothan et al, Virology 2020; read-out: EC50, SARS-CoV-2 replication in infected Huh cells; cited from earlier work
[5] = tested on: IL-6, IL-1β, TNF-α expression and NFκB pathway in 16HBE cells; assay: Western blot of cytokine expression and NFκB pathway, 16HBE cells; assay type: cell-based, human
Experimental: (§2) RAW 264.7 or 16HBE cells were seeded into 6 well plates at a density of 2 × 10^6cells/well. […] The collected cell lysates were centrifuged at 13000 rpm for 10 min, and the supernatants were stored for the subsequent Western Blot analysis. The protein concentrations of the supernatants were determined using a microplate spectrophotometer (SPECTRAMAX M4 of Molecular Devices, USA) at a wavelength of 595 nm. An equal quantity of proteins (50 µg) was separated by running on 10% SDS-PAGE and the separated proteins were transferred to a polyvinylidene fluoride (PVDF) membrane (0.45 µm, Millipore, USA). […]

Vero E6 cell = assay: Cell viability CCK8, Vero E6 cells; assay type: cell-based; conditions: 48 hrs
Experimental: as §1

[6] = tested on: IL-6, IL-1β, TNF-α expression and NFκB pathway in RAW 264.7 cells; assay: Western blot of cytokine expression and NFκB pathway, RAW 264.7 cells; assay type: cell-based; conditions: AF 1.2 µM, GA 40 µM
Experimental: as §2

[7] = tested on: inflammatory cytokine levels; conditions: oral AF 6-9 mg/kg.bw; intraperitoneal GA 5 mg/kg.bw; cited from earlier work
SD Rat = conditions: cited from earlier work
[8] = tested on: human bronchial epithelial cells (16HBE); assay: Cell viability CCK8, 16HBE cells; assay type: cell-based; conditions: 16HBE epithelial cell, 48 hrs
Experimental: as §1

SARS-CoV-2 M^pro = SARS-CoV-2 M^pro (Severe acute respiratory syndrome coronavirus 2, UniProt P0DTD1); assay: M^pro protease activity FRET assay; assay type: biochemical; conditions: no value printed (data not shown or figure only)

CCC(CC)COC(=O)[C@H](C)N[P@](=O)(OC[C@H]1O[C@@](C#N)(c2ccc3c(N)ncnn23)[C@H](O)[C@@H]1O)Oc1ccccc1
EC50 (SARS-CoV-2 [1]; Severe acute respiratory syndrome coronavirus 2, Vero, 48 h): ~650 nM | average pathological score of lung (INHAND) (SARS-CoV-2 [2]): approx. 2.7

CC(=O)OC[C@H]1O[C@@H]([S-])[C@H](OC(C)=O)[C@@H](OC(C)=O)[C@@H]1OC(C)=O.CCP(CC)CC.[Au+] [AF, AURANOFIN]
LD50 (BALB/c mice; BALB/c Mice, AF known value): LD50, about 33.8 mg/kg.bw | intraperitoneal LD50 (BALB/c mice; mice, known value): about 33.8 mg/kg | CC50 [3]: ~2630 nM | EC50 (SARS-CoV-2 [1]; MOI 0.015, 48 h.p.i., qRT-PCR): ~830 nM | EC50 (SARS-CoV-2 [4]): ~1400 nM | phosphorylation level of IKK, IκB, p65 and IL-6, IL-1β, TNF-α expression ([5]; bronchial epithelial cells, AF 0.15 µM, GA 20 µM): significantly inhibited | IL-6, IL-1β, and TNF-α expression levels ([5]; human bronchial epithelial cells, TNFα 50 ng/mL, 24 hrs, AF 1.2 µM, GA 40 µM): significantly suppressed | CC50 (Vero E6 cell): ~2270 nM | phosphorylation of IKK, IκB, and p65 (NFκB activation) ([6]; inflammatory macrophage cells): inhibit | IL-6, IL-1β, and TNF-α expression levels ([6]; macrophage cells, TNFα 50 ng/mL, 24 hrs): significantly suppressed | inflammatory cytokine levels [7]: significant suppression | LD50 (SD Rat; SD Rat, AF known value): LD50, about 25 mg/kg.bw | intraperitoneal LD50 (SD Rat; rat, known value): about 25.5 mg/kg | CC50 [8]: ~630 nM

OC[C@H]1O[C@H]([S-])[C@H](O)[C@@H](O)[C@@H]1O.[Au+] [aurothioglucose]
inhibition / suppression of M^pro protease activity (in words) (SARS-CoV-2 M^pro): able to inhibit
